Assay [1] concerns the target T1, Helicobacter pylori urease (Helicobacter pylori, UniProt P69996).
T1 construct: gene ureB; native urease from supernatant of sonicated H. pylori ATCC 43504; with urease subunit alpha (UreA)
The experiment in a line: Berthelot colorimetric urease activity assay with lysate supernatant (partially purified urease). It counts as biochemical.

The target in another assay is T2, E. coli DNA gyrase (Escherichia coli, UniProt P0AES4+P0AES6).
T2 construct: gene gyrA; DNA gyrase of the TopoGEN E. coli DNA Gyrase Drug Screening kit; with DNA gyrase subunit B (GyrB)
T2 sequence (P0AES4 2-875, one chain of several): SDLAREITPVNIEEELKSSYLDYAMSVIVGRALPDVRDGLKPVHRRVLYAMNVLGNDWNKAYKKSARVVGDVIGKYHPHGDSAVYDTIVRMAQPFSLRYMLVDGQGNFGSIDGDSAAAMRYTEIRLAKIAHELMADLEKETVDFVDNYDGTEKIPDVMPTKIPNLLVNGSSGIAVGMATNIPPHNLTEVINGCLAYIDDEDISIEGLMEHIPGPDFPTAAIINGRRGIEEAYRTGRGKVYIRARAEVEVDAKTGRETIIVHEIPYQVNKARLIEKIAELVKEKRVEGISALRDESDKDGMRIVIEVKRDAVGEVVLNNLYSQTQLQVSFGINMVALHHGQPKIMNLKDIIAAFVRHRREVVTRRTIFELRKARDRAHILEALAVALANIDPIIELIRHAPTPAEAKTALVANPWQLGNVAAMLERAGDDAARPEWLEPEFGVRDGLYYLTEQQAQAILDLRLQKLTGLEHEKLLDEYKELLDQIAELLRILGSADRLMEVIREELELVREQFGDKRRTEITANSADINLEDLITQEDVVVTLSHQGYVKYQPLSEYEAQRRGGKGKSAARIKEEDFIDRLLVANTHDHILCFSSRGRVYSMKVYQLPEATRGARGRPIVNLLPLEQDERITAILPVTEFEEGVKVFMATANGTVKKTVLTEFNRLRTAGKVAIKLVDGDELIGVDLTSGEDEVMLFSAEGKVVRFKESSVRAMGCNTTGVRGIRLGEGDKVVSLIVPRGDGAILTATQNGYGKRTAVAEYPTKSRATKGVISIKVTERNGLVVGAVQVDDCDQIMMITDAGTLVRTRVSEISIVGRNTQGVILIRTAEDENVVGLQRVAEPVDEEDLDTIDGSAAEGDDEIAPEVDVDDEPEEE
The experiment in a line: DNA supercoiling assay (agarose gel), […] inhibition at […]. It counts as biochemical.

Data on four compounds can be found in article PMC12525688, “Anti-Helicobacter pylori Activity and Gastroprotective Effects of Diacetylcurcumin and Four Metal Derivatives” (Molecules, 2025).

Like-named read-outs stand apart in the source and are kept apart here.

As a reminder, the IC50 is the concentration needed to halve the response being measured. By inhibition is commonly meant how much of the control response was suppressed. A higher inhibition goes with strong suppression.

T1 sequence (P14916 whole entry): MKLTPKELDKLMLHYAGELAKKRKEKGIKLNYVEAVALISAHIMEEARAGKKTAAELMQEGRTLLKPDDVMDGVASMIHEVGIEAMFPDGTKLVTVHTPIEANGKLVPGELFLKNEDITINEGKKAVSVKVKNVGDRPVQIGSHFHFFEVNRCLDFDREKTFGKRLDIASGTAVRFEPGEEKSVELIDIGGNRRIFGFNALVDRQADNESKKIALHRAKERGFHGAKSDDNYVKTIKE
T1 sequence (P69996 whole entry): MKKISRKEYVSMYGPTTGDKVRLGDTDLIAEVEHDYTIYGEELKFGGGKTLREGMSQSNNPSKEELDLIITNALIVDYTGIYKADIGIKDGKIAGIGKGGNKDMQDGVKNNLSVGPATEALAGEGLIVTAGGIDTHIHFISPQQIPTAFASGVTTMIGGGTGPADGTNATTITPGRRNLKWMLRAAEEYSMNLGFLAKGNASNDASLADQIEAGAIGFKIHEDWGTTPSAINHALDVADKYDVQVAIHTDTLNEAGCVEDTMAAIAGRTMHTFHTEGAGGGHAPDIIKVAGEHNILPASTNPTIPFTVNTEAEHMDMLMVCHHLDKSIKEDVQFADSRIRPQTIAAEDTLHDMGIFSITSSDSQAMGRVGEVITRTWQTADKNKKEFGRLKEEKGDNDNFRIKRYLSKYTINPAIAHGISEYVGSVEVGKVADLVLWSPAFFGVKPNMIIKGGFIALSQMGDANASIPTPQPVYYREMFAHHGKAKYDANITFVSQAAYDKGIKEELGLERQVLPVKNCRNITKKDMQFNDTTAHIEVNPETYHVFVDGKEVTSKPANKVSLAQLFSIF

`CC(=O)NO` [AHA, acetohydroxamic acid]: the IC50 in assay [1] (read-out: IC50) was determined as 488 µM.
The compound `COc1cc(/C=C/C(=O)C=C(/C=C/c2ccc(OC(C)=O)c(OC)c2)[O][Zn][O]C(=CC(=O)/C=C/c2ccc(OC(C)=O)c(OC)c2)/C=C/c2ccc(OC(C)=O)c(OC)c2)ccc1OC(C)=O` [DAC2-Zn] showed an IC50 in assay [1] of 12.4 µM.
For `COc1cc(/C=C/C(=O)C=C(/C=C/c2ccc(OC(C)=O)c(OC)c2)[O][Cu][O]C(=CC(=O)/C=C/c2ccc(OC(C)=O)c(OC)c2)/C=C/c2ccc(OC(C)=O)c(OC)c2)ccc1OC(C)=O` [DAC2-Cu], the IC50 in assay [1] is 20.4 µM.
With `O=C(O)c1cn(C2CC2)c2cc(N3CCNCC3)c(F)cc2c1=O` [ciprofloxacin], the inhibition at 3 µM against E. coli DNA gyrase came to 100%.
